In ChEMBL document CHEMBL1153321, “Approaches to the simultaneous inactivation of metallo- and serine-beta-lactamases” (Bioorg Med Chem Lett, 2009) one finds IC50 data, which are given here for seven compounds.

Test [1] can be described thus: Inhibition of recombinant GIM-1.
The nature of test [2]: Inhibition of recombinant VIM-2.

Bounds are passed on as bounds.

The term IC50 denotes the midpoint of a concentration-inhibition curve. As for `CC(=O)OCC1=C(C(=O)O)N2C(=O)[C@@H](N(O)C=O)[C@H]2SC1`, the IC50 in test [1] turned out to be 0.3 µM; in test [2], 10 µM.
Consider `CC(=O)OCC1=C(C(=O)O)N2C(=O)[C@@H](N(O)C(=O)Cc3ccccc3)[C@H]2SC1`, for which the results for the half-maximal inhibitory concentration (IC50) in test [1] and in test [2] were 0.3 µM and 2 µM, respectively.
Turning to `CC(=O)OCC1=C(C(=O)O)N2C(=O)[C@@H](NO)[C@H]2SC1`, the half-maximal inhibitory concentration (IC50) in test [1] worked out at 2 µM; in test [2], 9 µM.
Consider `CC(=O)OCC1=C(C(=O)O)N2C(=O)/C(=N/O)[C@H]2S(=O)(=O)C1`, for which the IC50 stood at 170 µM in test [1] and 270 µM in test [2].
The matching figures for `CC(=O)OCC1=C(C(=O)O)N2C(=O)/C(=N/O)[C@H]2SC1`: 15 µM and 10 µM.
As for `CC1=C(C(=O)O)N2C(=O)/C(=N/O)[C@H]2S(=O)(=O)C1`, the IC50 in test [1] is more than 500 µM; in test [2], 25 µM.
As to `CC(=O)OCC1=C(C(=O)O)N2C(=O)[C@@H](NC=O)[C@H]2SC1`, the figures for the IC50 in test [1] and in test [2] were 47 µM and 35 µM, respectively.
